# Values quoted from earlier work as cited in patent US12371748B2, “Genetic markers for predicting responsiveness to therapy with HDL-raising or HDL mimicking agent” (Hoffmann-La Roche Inc., priority 2014, dated 2025).
# Assays:
# CETP = target: T1, CETP (Oryctolagus cuniculus, UniProt P22687); settings: rabbits; cited from earlier work
# T1 construct: host or cells: rabbits (in vivo; endogenous plasma CETP)
# T1 sequence (P22687 2-497): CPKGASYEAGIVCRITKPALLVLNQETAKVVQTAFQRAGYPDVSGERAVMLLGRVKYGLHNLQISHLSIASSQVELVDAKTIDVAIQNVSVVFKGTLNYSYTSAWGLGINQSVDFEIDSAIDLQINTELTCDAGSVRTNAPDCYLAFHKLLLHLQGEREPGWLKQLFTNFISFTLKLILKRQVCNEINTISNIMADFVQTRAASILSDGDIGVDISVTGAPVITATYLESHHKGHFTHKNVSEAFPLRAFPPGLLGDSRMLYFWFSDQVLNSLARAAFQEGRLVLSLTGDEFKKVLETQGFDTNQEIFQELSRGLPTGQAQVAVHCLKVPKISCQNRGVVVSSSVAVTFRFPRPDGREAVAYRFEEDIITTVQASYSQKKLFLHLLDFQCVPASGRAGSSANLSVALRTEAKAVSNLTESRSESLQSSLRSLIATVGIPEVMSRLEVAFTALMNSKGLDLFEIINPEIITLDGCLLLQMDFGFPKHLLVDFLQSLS
# [1] = humans; cited from earlier work
compound,measurement,setting,value
"CCC(CC)CC1(C(=O)Nc2ccccc2SC(=O)C(C)C)CCCCC1 [dalcetrapib, thioisobutyric acid S-(2-{[1-(2-ethyl-butyl)-cyclohexanecarbonyl]-amino}-phenyl) ester]",CETP activity,CETP,inhibitor of CETP activity
same,LDL cholesterol,[1],decrease LDL cholesterol
same,plasma HDL cholesterol,[1],increase plasma HDL cholesterol
